13 molecules from ChEMBL document CHEMBL3351493, “Beta-aminoketones as prodrugs for selective irreversible inhibitors of type-1 methionine aminopeptidases” (Bioorg Med Chem Lett, 2014) can be followed below.

Each structure is given as a SMILES string. Active and inactive are the calls of the source.

In series [1] the test system is A-431. Briefly: Cytotoxicity against human A431 cells at 1.6 to 100 ug/ml after 72 hrs by crystal violet assay. In kind it is functional, cell-based.
Series [2] has as its system CAPAN-1. Briefly: Cytotoxicity against human Capan1 cells at 1.6 to 100 ug/ml after 72 hrs by crystal violet assay. In kind it is functional, cell-based.
The test system of series [3] is Ca-Ski. The series is described as follows: Cytotoxicity against human CaSki cells at 1.6 to 100 ug/ml after 72 hrs by crystal violet assay. In kind it is functional, cell-based.
Series [4] is described as follows: Cytotoxicity against human Flow 2002 cells at 1.6 to 100 ug/ml after 72 hrs by crystal violet assay. The series is classed as cell-based. Particulars: flow 2002, 72 h.
In series [5] the target is T1, Methionine aminopeptidase (Escherichia coli K-12, UniProt P0AE18).
T1 sequence (P0AE18 whole entry): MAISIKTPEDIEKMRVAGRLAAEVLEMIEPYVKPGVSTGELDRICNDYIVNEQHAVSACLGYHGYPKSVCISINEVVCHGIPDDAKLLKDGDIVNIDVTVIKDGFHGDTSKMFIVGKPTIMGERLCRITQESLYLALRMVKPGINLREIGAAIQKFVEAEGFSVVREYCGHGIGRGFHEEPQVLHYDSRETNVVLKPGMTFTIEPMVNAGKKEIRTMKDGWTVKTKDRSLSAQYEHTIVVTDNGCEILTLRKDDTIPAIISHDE
Briefly: Inhibition of C-terminal poly-His-tagged Escherichia coli MetAP expressed in Escherichia coli BL21(DE3) incubated for 30 mins before MGMM substrate addition by fluorescence assay. Particulars: read-out: IC50.

Series [6] concerns the target Methionine aminopeptidase 2 (Homo sapiens, UniProt P50579). To be noted: sf9.
Description: Inhibition of human MetAP-2 expressed in Sf9 cells incubated for 60 mins before MGMM substrate addition by fluorescence assay
Series [7] relates to SW707. Briefly: Cytotoxicity against human SW707 cells at 1.6 to 100 ug/ml after 72 hrs by crystal violet assay. The series is classed as functional, cell-based.
For series [8], the system named is A 172. The series is described as follows: Cytotoxicity against human A172 cells at 1.6 to 100 ug/ml after 72 hrs by crystal violet assay. In kind it is functional, cell-based.
Series [9] relates to BT-474. Briefly: Cytotoxicity against human BT474 cells at 1.6 to 100 ug/ml after 72 hrs by crystal violet assay. In kind it is functional, cell-based.
Series [10] can be described thus: Half life assessed as decomposition into amines and unsaturated ketones at 250 uM in 50 mM Tris/maleate pH 7.5 buffer by HPLC method. In kind it is physicochemical. To be noted: Tris/maleate buffer, pH 7.5.
Series [11] deals with Methionine aminopeptidase (Staphylococcus aureus (strain COL), UniProt Q5HEN6). The series is described as follows: Inhibition of N-terminal poly-His-tagged Staphylococcus aureus COL MetAP expressed in Escherichia coli BL21(DE3) incubated for 30 mins before MGMM substrate addition by fluorescence assay. Particulars: read-out: IC50. Also noted: species or system Staphylococcus aureus subsp. aureus COL.
Sequence of Methionine aminopeptidase (Staphylococcus aureus (strain COL), UniProt Q5HEN6) (Q5HEN6 whole entry): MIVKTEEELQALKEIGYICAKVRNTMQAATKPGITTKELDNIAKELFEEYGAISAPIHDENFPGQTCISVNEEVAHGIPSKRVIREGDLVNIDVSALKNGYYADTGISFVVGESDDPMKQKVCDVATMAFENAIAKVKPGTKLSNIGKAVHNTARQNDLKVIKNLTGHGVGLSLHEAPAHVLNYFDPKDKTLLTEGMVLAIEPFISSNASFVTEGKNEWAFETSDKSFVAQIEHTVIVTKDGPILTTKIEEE

Series [12] relates to MeWo. The series is described as follows: Cytotoxicity against human MeWo cells at 1.6 to 100 ug/ml after 72 hrs by crystal violet assay. In kind it is functional, cell-based.
Series [13] has as its system Calu-6. The series is described as follows: Cytotoxicity against human Calu6 cells at 1.6 to 100 ug/ml after 72 hrs by crystal violet assay. In kind it is functional, cell-based.
Series [14] relates to HaCaT. The series is described as follows: Cytotoxicity against human HaCaT cells at 1.6 to 100 ug/ml after 72 hrs by crystal violet assay. The series is classed as cell-based.
Series [15] concerns Escherichia coli. The series is described as follows: Antimicrobial activity against Escherichia coli BL21(DE3) assessed as inhibition of bacterial growth at 200 uM incubated at 37 degC for 7 hrs. In kind it is functional. Particulars: BL21-DE3, 7 h.

Sequence of Methionine aminopeptidase 2 (P50579 whole entry): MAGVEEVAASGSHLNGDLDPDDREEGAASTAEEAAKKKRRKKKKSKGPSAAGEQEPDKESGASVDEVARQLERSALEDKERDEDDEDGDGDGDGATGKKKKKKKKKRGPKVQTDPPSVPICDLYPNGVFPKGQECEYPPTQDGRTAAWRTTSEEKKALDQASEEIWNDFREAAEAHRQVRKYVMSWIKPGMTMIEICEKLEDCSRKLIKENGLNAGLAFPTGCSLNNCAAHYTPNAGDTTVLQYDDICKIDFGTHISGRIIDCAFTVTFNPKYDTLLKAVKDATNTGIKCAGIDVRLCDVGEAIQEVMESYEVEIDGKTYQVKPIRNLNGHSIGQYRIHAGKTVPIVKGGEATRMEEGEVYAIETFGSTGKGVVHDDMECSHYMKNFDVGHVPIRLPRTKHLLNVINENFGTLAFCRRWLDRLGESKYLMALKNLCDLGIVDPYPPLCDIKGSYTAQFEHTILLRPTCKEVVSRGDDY

For the molecule `Cc1ccc2c(c1)CC(CN(C)C)C2=O.Cl` (stereo unspecified), the outcome in [1], in [2], in series [3], in series [7], in series [8] and in series [9] was Active. Besides, the outcome in series [12] and in series [13] was Active. Also, the Activity result in series [4] and in [14] was “Toxic” throughout. Moreover, the IC50 in series [5] is 1100 nM; in series [6] it was “Not Active”; in series [11] it was 32000 nM. Besides, in series [10], the half-life at 250 µM was found to be 24 min. For the same molecule, in series [15], the inhibition at 200 µM was 100%.
Regarding `CN(C)CC1Cc2ccccc2C1=O.Cl` (stereo unspecified), the outcome in series [1], in [2], in [3], in series [7], in [8] and in series [9] was Active. For the same molecule, the result in series [12] and in series [13] was Active. Besides, the Activity result in series [4] and in series [14] was “Toxic” in each case. Further, the IC50 in series [5] was 2800 nM; in series [6], “Not Active”; in series [11] it was 26000 nM. Besides, the half-life at 250 µM in [10] is 10 min. For the same molecule, the inhibition at 200 µM in series [15] came to 90%.
Turning to `COc1ccc2c(c1)CC(CN(C)C)C2=O.Cl` (stereo unspecified), the outcome in series [1], in series [2], in [3], in series [7], in [8] and in series [9] was Active. For the same molecule, the outcome in series [12] and in [13] was Active. Also, the Activity result in [4] and in series [14] was “Toxic” in each case. Moreover, the half-inhibitory concentration (IC50) in series [5] is 2000 nM; in series [6] it was “Not Active”; in series [11], 42100 nM. Further, the half-life at 250 µM in series [10] was determined as 45 min. For the same molecule, in [15], the inhibition at 200 µM is 35%.
As for `Cc1ccc2c(c1)C(=O)C(CN(C)C)C2.Cl` (stereo unspecified), the outcome in series [1], in series [2], in series [3], in [7], in series [8] and in [9] was Active. In addition, the outcome in series [12] and in [13] was Active. Moreover, the Activity entry in series [4] and in [14] was “Toxic” throughout. The results for the IC50 in series [5], in [6] and in series [11] were 700 nM, “Not Active” and 15000 nM, respectively. Moreover, the half-life at 250 µM in series [10] amounted to 14 min. In series [15], the inhibition at 200 µM was 45%.
With `C=C1Cc2ccc(C)cc2C1=O`, the result in [1], in [2], in series [3], in series [7], in series [8] and in [9] was Active. In addition, the outcome in series [12] and in series [13] was Active. Further, the Activity result in [4] and in series [14] was “Toxic” each time. The 50% inhibitory concentration (IC50) in [5] was 800 nM; in series [6] it was “Not Active”.
As for `CN(C)CC1Cc2cc(Cl)ccc2C1=O.Cl` (stereo unspecified), the outcome in [1], in series [2], in [3], in series [7], in [8] and in [9] was Active. Besides, the result in series [12] and in series [13] was Active. The Activity result in series [4] and in series [14] was “Toxic” in each case. The results for the 50% inhibitory concentration (IC50) in series [5], in series [6] and in series [11] were 840 nM, “Not Active” and 7000 nM, respectively. Further, in series [10], the half-life at 250 µM stood at 7 min. Moreover, the inhibition at 200 µM in series [15] amounted to 71%.
For the molecule `C=C1Cc2cc(C)ccc2C1=O`, the result in series [1], in series [2], in [3], in series [7], in series [8] and in [9] was Active. Moreover, the outcome in [12] and in series [13] was Active. In addition, the Activity entry in series [4] and in [14] was “Toxic” each time. Besides, the 50% inhibitory concentration (IC50) in [5] was 400 nM; in series [6], “Not Active”; in series [11], 13300 nM. For the same molecule, the inhibition at 200 µM in series [15] turned out to be 100%.
As for `Cl.O=C1c2ccccc2CC1CN1CCCCC1` (stereo unspecified), the outcome in series [1], in series [2], in series [3], in [7], in [8] and in series [9] was Active. In addition, the outcome in [12] and in series [13] was Active. For the same molecule, the Activity result in series [4] and in series [14] was “Toxic” in each case. Also, the figures for the IC50 in series [5], in series [6] and in series [11] were 3100 nM, “Not Active” and 25000 nM, respectively. Also, the half-life at 250 µM in [10] amounted to 16 min. The inhibition at 200 µM in [15] amounted to 50%.
On to `CN(C)CC1Cc2cc(Br)ccc2C1=O.Cl` (stereo unspecified), for which the outcome in series [1], in series [2], in series [3], in series [7], in series [8] and in series [9] was Active. In addition, the result in series [12] and in [13] was Active. The Activity result in series [4] and in series [14] was “Toxic” each time. The IC50 in series [5] is 720 nM; in [6], “Not Active”; in [11], 7800 nM. Besides, the half-life at 250 µM in series [10] was found to be 6 min. The inhibition at 200 µM in [15] worked out at 57%.
Turning to `C=C1Cc2cc(Cl)ccc2C1=O`, the outcome in series [1], in [2], in series [3], in series [7], in [8] and in series [9] was Active. The result in [12] and in series [13] was Active. In addition, the Activity entry in series [4] and in series [14] was “Toxic” each time. Further, the IC50 in series [5] is 230 nM; in [6], “Not Active”. Besides, the inhibition at 200 µM in series [15] was determined as 27%.
Take `C=C1Cc2ccc(OC)cc2C1=O`: the outcome in series [1], in series [2], in series [3], in series [7], in series [8] and in series [9] was Active. Moreover, the outcome in [12] and in [13] was Active. Besides, the Activity result in series [4] and in series [14] was “Toxic” each time. For the same molecule, the results for the 50% inhibitory concentration (IC50) in [5] and in [6] were 670 nM and “Not Active”, respectively.
As to `C=C1Cc2cc(Br)ccc2C1=O`, the result in series [1], in series [2], in series [3], in series [7], in series [8] and in series [9] was Active. The outcome in series [12] and in series [13] was Active. For the same molecule, the Activity result in series [4] and in series [14] was “Toxic” each time. Further, the figures for the IC50 in series [5] and in series [6] were 190 nM and “Not Active”, respectively. Also, the inhibition at 200 µM in [15] worked out at 21%.
For the molecule `C=C1Cc2cc(OC)ccc2C1=O`, the result in [1], in series [2], in [3], in [7], in [8] and in series [9] was Active. For the same molecule, the result in series [12] and in [13] was Active. In addition, the Activity entry in series [4] and in [14] was “Toxic” in each case. Moreover, the results for the half-inhibitory concentration (IC50) in series [5] and in series [6] were 980 nM and “Not Active”, respectively.

The term IC50 denotes the concentration at which inhibition is half-maximal. As usually defined, the half-life is the time needed for the level to fall by half in the phase considered. The inhibition is the percentage by which the read-out fell short of the control.
